# Assay results taken from US7368578B2, “Five-membered heterocyclic compounds” (Takeda Pharmaceutical Company Limited, priority 2002, dated 2008).
row,Structure (SMILES),melting point
1,"CCOC(=O)/C=C/c1cc(OCc2ccc(OCc3nc(-c4ccccc4)oc3C)c(OC)c2)nn1-c1ccccc1 [Example 299, ethyl (E)-3-(3-{[3-methoxy-4-(5-methyl-2-phenyl-1,3-oxazol-4-ylmethoxy)benzyl]oxy}-1-phenyl-1H-pyrazol5-yl)-2-propenoate]",121 to 122 °C
2,"COc1cc(COc2cc(/C=C/C(=O)O)n(-c3ccccc3)n2)ccc1OCc1nc(-c2ccccc2)oc1C [Example 300, (E)-3-(3-{[3-methoxy-4-(5-methyl-2-phenyl-1,3-oxazol-4-ylmethoxy)benzyl]oxy}-1-phenyl-1H-pyrazol5-yl)-2-propenoic acid]",194 to 195 °C
3,"COc1cc(CC(=O)Nc2nn(-c3ccccc3)cc2C=O)ccc1OCc1nc(-c2ccco2)oc1C [Example 303, N-(4-formyl-1-phenyl-1H-pyrazol-3-yl)-2-(4-{[2-(2-furyl)-5-methyl-1,3-oxazol-4-yl]methoxy}-3-methoxyphenyl)acetamide]",190 to 191 °C
4,"Cc1oc(-c2ccccc2)nc1COc1ccc(OCc2oc(-c3ccccc3)nc2C=O)cc1 [Example 304, 5-({4-[(5-methyl-2-phenyl-1,3-oxazol-4-yl)methoxy]phenoxy}methyl)-2-phenyl-1,3-oxazole-4-carbaldehyde]",127 to 128 °C
5,"COc1cc(COc2nc(-c3ccccc3)ncc2C(=O)O)ccc1OCc1nc(-c2ccco2)oc1C [Example 305, 4-[(4-{[2-(2-furyl)-5-methyl-1,3-oxazol-4-yl]methoxy}-3-methoxybenzyl)oxy]-2-phenylpyrimidine-5-carboxylic acid]",163 to 164 °C
6,"COC(=O)c1cccc(-c2nc(COc3ccc(COc4nn(-c5ccccc5)cc4/C=C/c4nc(N5CCOCC5)sc4C)cc3OC)c(C)o2)c1 [Example 309, methyl 3-[4-({2-methoxy-4-[({4-[(E)-2-(5-methyl-2-morpholin-4-yl-1,3-thiazol-4-yl)ethenyl]-1-phenyl-1H-pyrazol-3-yl}oxy)methyl]phenoxy}methyl)-5-methyl-1,3-oxazol-2-yl]benzoate]",183 to 184 °C
7,"COc1cc(COc2nn(-c3ccccc3)cc2/C=C/c2nc(N3CCOCC3)sc2C)ccc1OCc1nc(-c2cccc(C(=O)O)c2)oc1C [Example 310, 3-[4-({2-methoxy-4-[({4-[(E)-2-(5-methyl-2-morpholin-4-yl-1,3-thiazol-4-yl)ethenyl]-1-phenyl-1H-pyrazol-3-yl}oxy)methyl]phenoxy)methyl)-5-methyl-1,3-oxazol-2-yl]benzoic acid]",215 to 217 °C (dec.)
8,"CCOC(=O)/C=C/c1nc(COc2ccc(COc3nn(-c4ccccc4)cc3C=O)cc2OC)c(C)o1 [Example 313, ethyl (2E)-3-{4-[(4-{[(4-formyl-1-phenyl-1H-pyrazol-3-yl)oxy]methyl}-2-methoxyphenoxy)methyl]-5-methyl-1,3-oxazol-2-yl}-2-propenoate]",150 to 151 °C
9,"COC(=O)c1cc(-c2nc(COc3ccc(COc4nn(-c5ccccc5)cc4C=O)cc3OC)c(C)o2)ccc1C [Example 319, methyl 5-{4-[(4-{[(4-formyl-1-phenyl-1H-pyrazol-3-yl)oxy]methyl}-2-methoxyphenoxy)methyl]-5-methyl-1,3-oxazol-2-yl}-2-methylbenzoate]",195 to 196 °C
10,"CCOC(=O)/C=C/c1nc(COc2ccc(COc3nn(-c4ccccc4)cc3/C=C/c3csc(CC)n3)cc2OC)c(C)o1 [Example 322 (E form), ethyl (2E)-3-[4-({4-[({4-[(E)-2-(2-ethyl-1,3-thiazol-4-yl)ethenyl]-1-phenyl-1H-pyrazol-3-yl}oxy)methyl]-2-methoxyphenoxy}methyl)-5-methyl-1,3-oxazol-2-yl]-2-propenoate]",95 to 96 °C
11,"CCOC(=O)/C=C/c1nc(COc2ccc(COc3nn(-c4ccccc4)cc3/C=C\c3csc(CC)n3)cc2OC)c(C)o1 [Example 322 (Z form), ethyl (2E)-3-[4-({4-[({4-[(Z)-2-(2-ethyl-1,3-thiazol-4-yl)ethenyl]-1-phenyl-1H-pyrazol-3-yl}oxy)methyl]-2-methoxyphenoxy}methyl)-5-methyl-1,3-oxazol-2-yl]-2-propenoate]",119 to 120 °C
12,"CCc1nc(/C=C/c2cn(-c3ccccc3)nc2OCc2ccc(OCc3nc(/C=C/C(=O)O)oc3C)c(OC)c2)cs1 [Example 323, (2E)-3-[4-({4-[({4-[(E)-2-(2-ethyl-1,3-thiazol-4-yl)ethenyl]-1-phenyl-1H-pyrazol-3-yl}oxy)methyl]-2-methoxyphenoxy}methyl)-5-methyl-1,3-oxazol-2-yl]-2-propenoic acid]",125 to 126 °C
13,"CCOC(=O)C1CCN(c2nc(COc3ccc(COc4nn(-c5ccccc5)cc4C=O)cc3OC)c(C)s2)CC1 [Example 324, ethyl 1-(4-[(4-{[(4-formyl-1-phenyl-1H-pyrazol-3-yl)oxy]methyl}-2-methoxyphenoxy)methyl]-5-methyl-1,3-thiazol-2-yl}piperidine-4-carboxylate]",126 to 127 °C
14,"CCOC(=O)c1ccc(-c2nc(COc3ccc(COc4nn(-c5ccccc5)cc4C=O)cc3OC)c(C)o2)s1 [Example 327, ethyl 5-{4-[(4-{[(4-formyl-1-phenyl-1H-pyrazol-3-yl)oxy]methyl}-2-methoxyphenoxy)methyl]-5-methyl-1,3-oxazol-2-yl}thiophene-2-carboxylate]",156 to 157 °C
15,"CCOC(=O)c1ccc(-c2nc(COc3ccc(COc4nn(-c5ccccc5)cc4/C=C/c4csc(CC)n4)cc3OC)c(C)o2)s1 [Example 330 (E form), ethyl 5-[4-({4-[({4-[(E)-2-(2-ethyl-1,3-thiazol-4-yl)ethenyl]-1-phenyl-1H-pyrazol-3-yl}oxy)methyl]-2-methoxyphenoxy}methyl)-5-methyl-1,3-oxazol-2-yl]thiophene-2-carboxylate]",145 to 146 °C
16,"CCOC(=O)c1ccc(-c2nc(COc3ccc(COc4nn(-c5ccccc5)cc4/C=C\c4csc(CC)n4)cc3OC)c(C)o2)s1 [Example 330 (Z form), ethyl 5-[4-({4-[({4-[(Z)-2-(2-ethyl-1,3-thiazol-4-yl)ethenyl]-1-phenyl-1H-pyrazol-3-yl}oxy)methyl]-2-methoxyphenoxy}methyl)-5-methyl-1,3-oxazol-2-yl]thiophene-2-carboxylate]",118 to 119 °C
17,"CCc1nc(/C=C/c2cn(-c3ccccc3)nc2OCc2ccc(OCc3nc(-c4ccc(C(=O)O)s4)oc3C)c(OC)c2)cs1 [Example 331, 5-[4-({4-[({4-[(E)-2-(2-ethyl-1,3-thiazol-4-yl)ethenyl]-1-phenyl-1H-pyrazol-3-yl}oxy)methyl]-2-methoxyphenoxy}methyl)-5-methyl-1,3-oxazol-2-yl]thiophene-2-carboxylic acid]",150 to 151 °C
18,"COc1cc(COc2nn(-c3ccccc3)cc2C=O)ccc1OCc1nc(-c2cccc(C#N)c2)oc1C [Example 332, 3-{4-[(4-{[(4-formyl-1-phenyl-1H-pyrazol-3-yl)oxy]methyl)-2-methoxyphenoxy}methyl]-5-methyl-1,3-oxazol-2-yl}benzonitrile]",161 to 162 °C
19,"CCOC(=O)Cc1ccc(-c2nc(COc3ccc(COc4nn(-c5ccccc5)cc4/C=C/c4csc(CC)n4)cc3OC)c(C)o2)cc1 [Example 338, ethyl {4-[4-({4-[({4-[(E)-2-(2-ethyl-1,3-thiazol-4-yl)ethenyl]-1-phenyl-1H-pyrazol-3-yl}oxy)methyl]-2-methoxyphenoxy}methyl)-5-methyl-1,3-oxazol-2-yl]phenyl}acetate]",140 to 141 °C
20,"CCOC(=O)Cc1ccc(-c2nc(COc3ccc(COc4nn(-c5ccccc5)cc4/C=C\c4csc(CC)n4)cc3OC)c(C)o2)cc1 [Example 338, ethyl {4-[4-({4-[({4-[(Z)-2-(2-ethyl-1,3-thiazol-4-yl)ethenyl]-1-phenyl-1H-pyrazol-3-yl}oxy)methyl]-2-methoxyphenoxy}methyl)-5-methyl-1,3-oxazol-2-yl]phenyl}acetate]",136 to 137 °C
21,"CCOC(=O)Cc1ccc(-c2nc(COc3ccc(COc4nn(-c5ccccc5)cc4/C=C/c4cncn4CC)cc3OC)c(C)o2)cc1 [Example 340, ethyl {4-[4-({4-[({4-[(E)-2-(1-ethyl-1H-imidazol-5-yl)ethenyl]-1-phenyl-1H-pyrazol-3-yl}oxy)methyl]-2-methoxyphenoxy)methyl)-5-methyl-1,3-oxazol-2-yl]phenyl}acetate]",134 to 135 °C
22,"CCOC(=O)Cc1ccc(-c2nc(COc3ccc(COc4nn(-c5ccccc5)cc4/C=C\c4cncn4CC)cc3OC)c(C)o2)cc1 [Example 340, ethyl {4-[4-({4-[({4-[(Z)-2-(1-ethyl-1H-imidazol-5-yl)ethenyl]-1-phenyl-1H-pyrazol-3-yl}oxy)methyl]-2-methoxyphenoxy}methyl)-5-methyl-1,3-oxazol-2-yl]phenyl}acetate]",85 to 86 °C
23,"CCOC(=O)Cc1ccc(-c2nc(COc3ccc(COc4nn(-c5ccccc5)cc4/C=C/c4cn(CC)cn4)cc3OC)c(C)o2)cc1 [Example 343, ethyl (4-{4-[(4-[({4-[(E)-2-(1-ethyl-1H-imidazol-4-yl)ethenyl]-1-phenyl-1H-pyrazol-3-yl}oxy)methyl]-2-methoxyphenoxy)methyl]-5-methyl-1,3-oxazol-2-yl}phenyl)acetate]",140 to 141 °C
24,"CCOC(=O)Cc1ccc(-c2nc(COc3ccc(COc4nn(-c5ccccc5)cc4/C=C\c4cnn(CC)c4)cc3OC)c(C)o2)cc1 [Example 346, ethyl {4-[4-({4-[({4-[(Z)-2-(1-ethyl-1H-pyrazol-4-yl)ethenyl]-1-phenyl-1H-pyrazol-3-yl}oxy)methyl]-2-methoxyphenoxy}methyl)-5-methyl-1,3-oxazol-2-yl]phenyl}acetate]",140 to 141 °C
25,"COc1cc(CN(C)c2nn(-c3ccccc3)cc2C=O)ccc1OCc1nc(-c2ccco2)oc1C [Example 349, 3-([4-{[2-(2-furyl)-5-methyl-1,3-oxazol-4-yl]methoxy}-3-methoxybenzyl](methyl)amino)-1-phenyl-1H-pyrazole-4-carbaldehyde]",101 to 102 °C
26,"CCOC(=O)Cc1ccc(-c2nc(COc3ccc(COc4nn(-c5ccccc5)cc4/C=C/c4csc(C)n4)cc3OC)c(C)o2)cc1 [Example 356, ethyl {4-[4-({2-methoxy-4-[({4-[(E)-2-(2-methyl-1,3-thiazol-4-yl)ethenyl]-1-phenyl-1H-pyrazol-3-yl}oxy)methyl]phenoxy}methyl)-5-methyl-1,3-oxazol-2-yl]phenyl}acetate]",153 to 155 °C
